Laboratory results reported in patent US10278909B2, “Composition suitable to preserve the physiological condition of skin and hair and reestablish their regenerative functions” (GIULIANI S.P.A., priority 2014, dated 2019).

Test system: Human Hair Follicle Outer Root Sheath Cells (HHFORSC)
Assay: ATP assay in Human Hair Follicle Outer Root Sheath Cells (Abcam ATP-assay kit, absorbance 570 nm)
Assay type: cell-based
Conditions: 24 h treatment, carnitine 10 mg/ml, caffeine 10 mg/ml, arginine 30 mg/ml (alone or combined); for ATP % vs control: control = culture medium only = 100
Experimental: Human Hair Follicle Outer Root Sheath Cells (HHFORSC), supplied by Innoprot, are isolated by ScienCell Research Labs from the outer sheath of the root of human hair. The cell line was grown in culture medium for mesenchymal stem cells (MSCM): 500 mL basal medium, 20% fetal bovine serum (FBS), 1% growth supplement for mesenchymal stem cells (MSCGS), 1% penicillin/streptomycin (P/S solution) and maintained in 25 cm^2 culture flasks at 37° C. and 5% CO2. Before proceeding with plating the cells, the flask cells is coated with poly-L-lysine (2 μg/cm^2). Every two days, the confluent cultures are divided 1:3-1:6, after washing with DPBS (Dulbecco's Phosphate-Buffered Saline), using a solution of T/E (trypsin/EDTA solution) and TNS (Trypsin Neutralization Solution) and seeded at 2-5×^4 cell/cm^2, 37° C., 5% CO2. When the cells (HHFORSC) reach about 80% confluence, they are detached with trypsin/EDTA and seeded at a density of 1×10^6 cells/ml in 12-well plates and then incubated at 37° C., 5% CO2 (24 h). When the cells reach about 80% confluence, they are treated with samples of the following compounds or mixtures of compounds, tested at the concentrations described hereafter: • Carnitine 10 mg/ml • Caffeine 10 mg/ml • Arginine 30 mg/ml • Carnitine 10 mg/ml+Caffeine 10 mg/ml • Carnitine 10 mg/ml+Arginine 30 mg/ml • Caffeine 10 mg/ml+Arginine 30 mg/ml • Carnitine 10 mg/ml+Caffeine 10 mg/ml+Arginine 30 mg/ml The cells treated with culture medium only were used as control. All the cells were incubated at 37° C., 5% CO2 for 24 h. […] The samples were then lysed by pipetting repeatedly and centrifuged to remove insoluble materials, and finally stored on ice until use. […] The samples were incubated at room temperature for 30 minutes, in the dark. The absorbance was read at a wavelength of 570 nm with a reference filter of 630 nm in a microplate reader Biotek ELX808 using a predetermined protocol and after having correctly defined a layout of the plate. The ATP concentration was calculated by interpolating the data of the standard curve after subtraction of the blank: [ATP] (nmol/μl)=Ts/Sv where Ts is the amount of ATP from the standard curve (nmol); SV is the volume of the sample (before dilution) added to the sample wells (μl).

For `C[N+](C)(C)CC(O)CC(=O)[O-]` (stereo not drawn) [Carnitine], the “Δ % (increase in the production of cellular ATP vs untreated control)” value was 34.164% and the “ATP % vs control” value was 134.16%.

For `N=C(N)NCCC[C@H](N)C(=O)O` [Arginine], the “Δ % (increase in the production of cellular ATP vs untreated control)” value was 32.944% and the “ATP % vs control” value was 132.94%.

`Cn1c(=O)c2c(ncn2C)n(C)c1=O` [Caffeine] was tested, and the “Δ % (increase in the production of cellular ATP vs untreated control)” value was 26.843% and the “ATP % vs control” value was 126.84%.
